Test results taken from ChEMBL document CHEMBL5634141 (Eur J Med Chem, 2023).

Legend:
NCI-H23 [1] = test: Antiproliferative activity against human NCI-H23 cells expressing KRAS G12C mutant assessed as relative cell viability at 100 nM incubated for 72 hrs by CCK-8 assay; assay type: functional; conditions: read-out: Activity
MIA PaCa-2 [2] = test: Antiproliferative activity against human MIA PaCa-2 cells expressing KRAS G12C mutant assessed as relative cell viability at 100 nM incubated for 72 hrs by CCK-8 assay; assay type: functional; conditions: read-out: Activity
SW837 [3] = test: Antiproliferative activity against human SW837 cells expressing KRAS G12C mutant assessed as relative cell viability at 100 nM incubated for 72 hrs by CCK-8 assay; assay type: functional; conditions: read-out: Activity
Calu-1 [4] = test: Antiproliferative activity against human Calu-1 cells expressing KRAS G12C mutant assessed as relative cell viability at 100 nM incubated for 72 hrs by CCK-8 assay; assay type: functional; conditions: read-out: Activity
NCI-H358 [5] = test: Antiproliferative activity against human NCI-H358 cells expressing KRAS G12C mutant assessed as relative cell viability at 100 nM incubated for 72 hrs by CCK-8 assay; assay type: functional; conditions: read-out: Activity
HepG2 = test: Antiproliferative activity against human HepG2 cells expressing KRAS assessed as inhibition of cell growth incubated for 72 hrs by CCK-8 assay; assay type: functional, cell-based; conditions: HepG2, 72 h
ASPC1 = test: Antiproliferative activity against human ASPC1 cells expressing KRAS G12D mutant assessed as inhibition of cell growth incubated for 72 hrs by CCK-8 assay; assay type: functional, cell-based; conditions: ASPC1, 72 h
NCI-H358 [6] = test: Antiproliferative activity against human NCI-H358 cells expressing KRAS G12C mutant assessed as inhibition of cell growth incubated for 72 hrs by CCK-8 assay; assay type: functional, cell-based; conditions: NCI-H358, 72 h
[7] = Cytotoxicity against HEK293T cells assessed as inhibition of cell growth incubated for 72 hrs by CCK-8 assay; assay type: toxicity, cell-based, HEK-293T; conditions: human
MIA PaCa-2 [8] = test: Antiproliferative activity against human MIA PaCa-2 cells expressing KRAS G12C mutant assessed as inhibition of cell growth incubated for 72 hrs by CCK-8 assay; assay type: functional, cell-based; conditions: MIA PaCa-2, 72 h
Calu-1 [9] = test: Antiproliferative activity against human Calu-1 cells expressing KRAS G12C mutant assessed as relative cell viability at 200 nM incubated for 72 hrs by CCK-8 assay; assay type: functional; conditions: read-out: Activity
NCI-H358 [10] = test: Antiproliferative activity against human NCI-H358 cells expressing KRAS G12C mutant assessed as relative cell viability at 200 nM incubated for 72 hrs by CCK-8 assay; assay type: functional; conditions: read-out: Activity
NCI-H23 [11] = test: Antiproliferative activity against human NCI-H23 cells expressing KRAS G12C mutant assessed as relative cell viability at 200 nM incubated for 72 hrs by CCK-8 assay; assay type: functional; conditions: read-out: Activity
SW837 [12] = test: Antiproliferative activity against human SW837 cells expressing KRAS G12C mutant assessed as relative cell viability at 200 nM incubated for 72 hrs by CCK-8 assay; assay type: functional; conditions: read-out: Activity
MIA PaCa-2 [13] = test: Antiproliferative activity against human MIA PaCa-2 cells expressing KRAS G12C mutant assessed as relative cell viability at 200 nM incubated for 72 hrs by CCK-8 assay; assay type: functional; conditions: read-out: Activity
SW837 [14] = test: Antiproliferative activity against human SW837 cells expressing KRAS G12C mutant assessed as relative cell viability at 50 nM incubated for 72 hrs by CCK-8 assay; assay type: functional; conditions: read-out: Activity
Calu-1 [15] = test: Antiproliferative activity against human Calu-1 cells expressing KRAS G12C mutant assessed as relative cell viability at 50 nM incubated for 72 hrs by CCK-8 assay; assay type: functional; conditions: read-out: Activity
NCI-H23 [16] = test: Antiproliferative activity against human NCI-H23 cells expressing KRAS G12C mutant assessed as relative cell viability at 50 nM incubated for 72 hrs by CCK-8 assay; assay type: functional; conditions: read-out: Activity
NCI-H358 [17] = test: Antiproliferative activity against human NCI-H358 cells expressing KRAS G12C mutant assessed as relative cell viability at 50 nM incubated for 72 hrs by CCK-8 assay; assay type: functional; conditions: read-out: Activity
MIA PaCa-2 [18] = test: Antiproliferative activity against human MIA PaCa-2 cells expressing KRAS G12C mutant assessed as relative cell viability at 50 nM incubated for 72 hrs by CCK-8 assay; assay type: functional; conditions: read-out: Activity

Row | SMILES | IC50 (HepG2) | IC50 (ASPC1) | IC50 (NCI-H358 [6]) | IC50 at 72 h [7] | IC50 (MIA PaCa-2 [8]) | further results
1 | NC1(c2ccc(-c3nc4ccn5c(=O)[nH]nc5c4cc3-c3ccccc3)cc2)CCC1 [MK-2206] | – | – | – | – | – | viability at 0.1 µM (NCI-H23 [1]): 0.85%; viability at 0.1 µM (MIA PaCa-2 [2]): 0.92%; viability at 0.1 µM (SW837 [3]): 0.84%; viability at 0.1 µM (Calu-1 [4]): 0.82%; viability at 0.1 µM (NCI-H358 [5]): 0.88%
2 | C=CC(=O)N1CCN(c2nc(=O)n(-c3c(C)ccnc3C(C)C)c3nc(-c4c(F)cccc4OCc4cn(CC(=O)N[C@H](C(=O)N5C[C@H](O)C[C@H]5C(=O)NCc5ccc(-c6scnc6C)cc5)C(C)(C)C)nn4)c(F)cc23)[C@@H](C)C1 | > 10 µM | > 10 µM | 0.562 µM | > 10 µM | 0.529 µM | –
3 | Cc1ccc(NC(=O)c2ccnc(C(F)(F)F)c2)cc1-c1cc(OCCO)nc(N2CCOCC2)c1 [NAPORAFENIB] | – | – | – | – | – | viability at 0.1 µM (NCI-H23 [1]): 0.82%; viability at 0.1 µM (MIA PaCa-2 [2]): 0.79%; viability at 0.1 µM (SW837 [3]): 0.85%; viability at 0.1 µM (Calu-1 [4]): 0.9%; viability at 0.1 µM (NCI-H358 [5]): 0.81%
4 | C=CC(=O)N1CCN(c2nc(=O)n(-c3c(C)ccnc3C(C)C)c3nc(-c4c(F)cccc4OCCOCC(=O)Nc4cccc5c4CN(C4CCC(=O)NC4=O)C5=O)c(F)cc23)[C@@H](C)C1 (stereo not given in full) | > 10 µM | > 10 µM | 0.631 µM | > 10 µM | 0.434 µM | –
5 | C[C@@H](Oc1cc(-c2cnn(C3CCNCC3)c2)cnc1N)c1c(Cl)ccc(F)c1Cl [CRIZOTINIB] | – | – | – | – | – | viability at 0.2 µM (Calu-1 [9]): 0.87%; viability at 0.2 µM (NCI-H358 [10]): 0.82%; viability at 0.2 µM (NCI-H23 [11]): 0.81%; viability at 0.2 µM (SW837 [12]): 0.77%; viability at 0.2 µM (MIA PaCa-2 [13]): 0.79%
6 | C=CC(=O)N1CCN(c2nc(=O)n(-c3c(C)ccnc3C(C)C)c3nc(-c4c(F)cccc4OCc4cn(CCC(=O)N[C@H](C(=O)N5C[C@H](O)C[C@H]5C(=O)NCc5ccc(-c6scnc6C)cc5)C(C)(C)C)nn4)c(F)cc23)[C@@H](C)C1 | > 10 µM | > 10 µM | 0.222 µM | > 10 µM | 0.2 µM | –
7 | C=CC(=O)N1CCN(c2nc(=O)n(-c3c(C)ccnc3C(C)C)c3nc(-c4c(F)cccc4OCCN4CCN(CCC(=O)N[C@H](C(=O)N5C[C@H](O)C[C@H]5C(=O)NCc5ccc(-c6scnc6C)cc5)C(C)(C)C)CC4)c(F)cc23)[C@@H](C)C1 | > 10 µM | > 10 µM | 0.253 µM | > 10 µM | 0.172 µM | –
8 | Cn1c(=O)n(-c2ccc(C(C)(C)C#N)cc2)c2c3cc(-c4cnc5ccccc5c4)ccc3ncc21 [DACTOLISIB] | – | – | – | – | – | viability at 0.05 µM (SW837 [14]): 0.82%; viability at 0.05 µM (Calu-1 [15]): 0.88%; viability at 0.05 µM (NCI-H23 [16]): 0.79%; viability at 0.05 µM (NCI-H358 [17]): 0.77%; viability at 0.05 µM (MIA PaCa-2 [18]): 0.7%
9 | C=CC(=O)N1CCN(c2nc(=O)n(-c3c(C)ccnc3C(C)C)c3nc(-c4c(F)cccc4OCc4cn(CCCCC(=O)N[C@H](C(=O)N5C[C@H](O)C[C@H]5C(=O)NCc5ccc(-c6scnc6C)cc5)C(C)(C)C)nn4)c(F)cc23)[C@@H](C)C1 | > 10 µM | > 10 µM | 0.463 µM | > 10 µM | 0.66 µM | –
